Where two headings read alike, the source gives them in different places.
Key:
[1] = molecular target: NF-κB (p65) (Homo sapiens, UniProt Q04206); experiment: Enzyme-based ELISA NF-κB; assay type: biochemical; conditions: for NF-κB (p65) inhibitory activity (in words): ELISA assay; for times more potent than the control compound rocaglamide in NF-κB (p65) assay: relative to rocaglamide
[2] = system: human monocytic leukemia cell line MONO-MAC-6; conditions: cited from earlier work
[3] = system: human monocytic leukemia cell line MONO-MAC-1; conditions: cited from earlier work
[4] = system: HT-29 human colon cancer cells; experiment: Cytotoxicity against HT-29 human colon cancer cells; assay type: cell-based; conditions: relative to perviridisin B (2), ED50 0.46 µM
[5] = system: CCD-112CoN normal colon cell line; experiment: Cytotoxicity against CCD-112CoN normal colon cell line; assay type: cell-based; conditions: read-out: CCD112CoNl ED50
[6] = system: LNCaP human prostate cancer cells; conditions: cited from earlier work
[7] = NF-κB (p65) ED50, ELISA assay, ED50 > 20 µM inactive

Sequence of NF-κB (p65) (Q04206 whole entry): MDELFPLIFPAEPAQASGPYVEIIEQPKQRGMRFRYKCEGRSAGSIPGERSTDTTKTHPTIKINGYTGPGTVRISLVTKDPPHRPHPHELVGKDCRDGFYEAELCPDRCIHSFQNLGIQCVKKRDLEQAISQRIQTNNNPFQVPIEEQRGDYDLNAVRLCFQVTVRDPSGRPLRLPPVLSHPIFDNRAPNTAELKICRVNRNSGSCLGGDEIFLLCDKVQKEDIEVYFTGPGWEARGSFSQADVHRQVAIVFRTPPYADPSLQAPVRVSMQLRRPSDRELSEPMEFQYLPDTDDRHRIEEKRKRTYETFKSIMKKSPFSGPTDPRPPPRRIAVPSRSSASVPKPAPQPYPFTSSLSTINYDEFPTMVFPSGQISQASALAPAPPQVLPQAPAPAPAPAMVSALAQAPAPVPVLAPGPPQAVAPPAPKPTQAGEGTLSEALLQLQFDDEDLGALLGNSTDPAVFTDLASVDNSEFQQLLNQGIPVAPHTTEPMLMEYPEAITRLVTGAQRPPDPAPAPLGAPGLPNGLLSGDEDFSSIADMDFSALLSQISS

Compound | IC50 [1] | IC50 [1, 7] | CC50 [5] | further results
COc1ccc(-c2oc3cc(OC)cc(OC)c3c(=O)c2O)cc1 [5,7,4′-tri-O-methylkaempferol] | > 20 µM | – | – | –
COc1ccc([C@@]23Oc4cc(OC)cc(OC)c4[C@]2(OC)[C@H](O)C[C@H]3c2ccccc2)cc1 [8b-O-methylrocaglaol] | – | > 20 µM | – | cytotoxicity result in MONO-MAC-6 [2]: negative result; cytotoxicity result in MONO-MAC-1 [3]: negative result
COc1ccc([C@]23Oc4cc(OC)cc(OC)c4[C@](O)(C2O)[C@@H](c2ccccc2)[C@@H]3C(=O)NCCCCNC(=O)/C(C)=C/CO)cc1 (stereo partly shown) [Compound 1, perviridisin A] | – | > 20 µM | – | times less active than its C-10 epimer perviridisin B (2) against HT-29 cells [4]: over 25 times
COc1ccc([C@]23Oc4cc(OC)cc(OC)c4[C@](O)(C2O)[C@@H](c2ccccc2)[C@@H]3C(=O)NCCCCNC(=O)/C(C)=C/CO)cc1 (stereo partly shown) [Compound 2, perviridisin B] | – | – | > 50 µM | NF-κB (p65) inhibitory activity (in words) [1]: significant NF-κB (p65) inhibitory activity; IC50 ([1]; NF-κB (p65) ED50): 2.4 µM
COc1cc(OC)c2c(c1)O[C@@]1(c3ccc4c(c3)OCO4)[C@H](c3ccccc3)C[C@@H](O)[C@@]21OC [Compound 3, 8b-O-methyl-4′-demethoxy-3′,4′-methylenedioxyrocaglaol] | – | > 20 µM | > 50 µM | –
COC(=O)[C@H]1[C@@H](O)[C@@]2(OC)c3c(OC)cc(OC)cc3O[C@@]2(c2ccc3c(c2)OCO3)[C@@H]1c1ccccc1 [Compound 4, methyl 8b-O-methyl-4′-demethoxy-3′,4′-methylenedioxyrocaglate] | – | > 20 µM | > 50 µM | –
COc1ccc([C@@]23Oc4cc(OC)cc(OC)c4[C@]2(O)[C@H](O)C[C@H]3c2ccccc2)cc1 [Compound 9, rocaglaol] | 0.005 µM | – | > 50 µM | effect on LNCaP cells (cell cycle, apoptosis) [6]: cause G2/M-phase cell cycle arrest and to induce apoptosis; NF-κB (p65) inhibitory activity (in words) [1]: significant NF-κB (p65) inhibitory activity; times more potent than the control compound rocaglamide in NF-κB (p65) assay [1]: more than 10 times
COC(=O)[C@H]1[C@@H](O)[C@@]2(O)c3c(OC)cc(OC)cc3O[C@@]2(c2ccc(OC)cc2)[C@@H]1c1ccccc1 [Compound 10, methyl rocaglate] | – | > 20 µM | > 50 µM | –
COc1cc(OC)c2c(c1)O[C@@]1(c3ccc4c(c3)OCO4)[C@H](c3ccccc3)C[C@@H](O)[C@@]21O [Compound 11, 4′-demethoxy-3′,4′-methylenedioxyrocaglaol] | 0.33 µM | – | > 50 µM | NF-κB (p65) inhibitory activity (in words) [1]: significant NF-κB (p65) inhibitory activity
COC(=O)[C@H]1[C@@H](O)[C@@]2(O)c3c(OC)cc(OC)cc3O[C@@]2(c2ccc3c(c2)OCO3)[C@@H]1c1ccccc1 [Compound 12, methyl 4′-demethoxy-3′,4′-methylenedioxyrocaglate] | 3.54 µM | – | > 50 µM | NF-κB (p65) inhibitory activity (in words) [1]: significant NF-κB (p65) inhibitory activity
COc1ccc([C@@]23Oc4cc(OC)cc(OC)c4[C@]2(O)[C@H](O)[C@H](C(N)=O)[C@H]3c2ccccc2)cc1 [Compound 13, didesmethylrocaglamide] | – | > 20 µM | > 50 µM | –
COC(=O)[C@H]1[C@@H](OC=O)[C@@]2(O)c3c(OC)cc(OC)cc3O[C@@]2(c2ccc3c(c2)OCO3)[C@@H]1c1ccccc1 [Compound 14, methyl 1-formyloxy-4′-demethoxy-3′,4′-methylenedioxyrocaglate] | – | – | > 50 µM | –
COC(=O)[C@H]1[C@@H](OC=O)[C@@]2(O)c3c(OC)cc(OC)cc3O[C@@]2(c2ccc(OC)cc2)[C@@H]1c1ccccc1 [Compound 15, methyl 1-formyloxyrocaglate] | – | > 20 µM | > 50 µM | –
COC(=O)[C@H]1[C@@H](O)[C@@]2(OC)c3c(OC)cc(OC)cc3O[C@@]2(c2ccc(OC)cc2)[C@@H]1c1ccccc1 [Compound 16, methyl 8b-O-methylrocaglate] | – | > 20 µM | > 50 µM | cytotoxicity result in MONO-MAC-6 [2]: negative result; cytotoxicity result in MONO-MAC-1 [3]: negative result
CC(C)[C@H]1CC[C@]2(C)C(=O)CCC(C=O)=C[C@H]12 [Compound 17, 2-oxaisodauc-5-en-12-al] | 0.005 µM | – | – | NF-κB (p65) inhibitory activity (in words) [1]: significant NF-κB (p65) inhibitory activity; times more potent than the control compound rocaglamide in NF-κB (p65) assay [1]: more than 10 times
CC(C)=C[C@H](O)[C@@H](O)[C@@H](CO)[C@H]1CC[C@@]2(C)[C@@H]3CC[C@H]4C(C)(C)[C@@H](O)CC[C@@]45C[C@@]35CC[C@]12C [argenteanol] | – | > 20 µM | – | –
CC1(C)[C@H](O)CC[C@]2(C)[C@H]3CC[C@@H]4[C@@H]([C@]5(C)CCC(=O)O5)CC[C@@]4(C)[C@]3(C)CC[C@@H]12 [cabraleahydroxylactone] | – | > 20 µM | – | –
CC1=CC(O)N(CCCCNC(=O)/C=C/c2ccccc2)C1=O (stereo not shown) [gigantamide A] | > 20 µM | – | – | –
COc1ccc([C@@]23Oc4cc(OC)cc(OC)c4[C@]2(O)[C@H](O)[C@H](C(=O)N(C)C)[C@H]3c2ccccc2)cc1 [rocaglamide, reference compound] | – | – | > 50 µM | –
COc1cc2ccc(=O)oc2cc1O [scopoletin] | – | > 20 µM | – | –

From paper PMC3606667 (Journal of natural products, 2013)
